Source: patent publication US10934298B2, “Substituted pyrazolo[1,5-a]pyrimidines for the treatment of medical disorders” (BIAL—BioTech Investments, Inc., priority 2016, dated 2021)

Target: T1, glucocerebrosidase (Gcase) (Homo sapiens, UniProt P04062)
T1 construct: micellar solution containing 10 nM GCase and 100 nM saposin C
T1 sequence (P04062 40-536): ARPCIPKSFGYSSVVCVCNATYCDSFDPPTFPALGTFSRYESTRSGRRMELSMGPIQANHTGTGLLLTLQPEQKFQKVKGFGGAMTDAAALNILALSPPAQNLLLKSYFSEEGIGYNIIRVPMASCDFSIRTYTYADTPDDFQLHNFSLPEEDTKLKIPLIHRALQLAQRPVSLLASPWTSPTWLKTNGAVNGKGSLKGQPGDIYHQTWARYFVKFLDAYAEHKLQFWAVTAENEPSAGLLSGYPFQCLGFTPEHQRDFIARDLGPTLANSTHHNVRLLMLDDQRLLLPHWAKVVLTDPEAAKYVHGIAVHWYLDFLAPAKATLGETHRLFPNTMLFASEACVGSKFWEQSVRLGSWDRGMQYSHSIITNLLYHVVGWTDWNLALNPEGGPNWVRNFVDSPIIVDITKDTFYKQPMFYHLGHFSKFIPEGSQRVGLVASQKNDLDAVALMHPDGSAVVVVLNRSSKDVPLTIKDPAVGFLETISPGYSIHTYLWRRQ
Assay: Glucocerebrosidase (Gcase) activation assay with 4-methylumbelliferyl-beta-D-glucopyranoside substrate, saposin C and phosphatidylserine/triton micelles, fluorescence readout
Type: biochemical
Procedure, shortened: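 Test compounds are first screened at 1.0 and 0.1 μM final, then titrated in 8 points (3-fold from 5 μM) against human GCase with saposin C in phosphatidylserine/triton X-100 micelles at pH 4.7. Reactions run 15 min at room temperature, with fluorescence read at 365/440 nm.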

Row | SMILES | Percent Gcase Activation, 0.1 μM Test Compound (test compound at 0.1 μM) | Percent Gcase Activation, 1 μM Test Compound (test compound at 1.0 μM) | Percent Gcase Activation, 0.1 μM Test Compound (0.1 μM test compound) | Percent Gcase Activation, 1 μM Test Compound (1 μM test compound) | further results
1 | Cc1cc(-c2cccc3ncsc23)nc2c(C(=O)NC(C)C(F)(F)F)cnn12 (centres unmarked) [III-221] | *** (greater than 20% Gcase activation) | +++ (Gcase activation greater than 60%) |  |  | 
2 | Cc1cc(C2CC(C)(C)CCO2)nc2c(C(=O)NC(C3CC3)C(F)(F)F)cnn12 (centres unmarked) [III-323] |  |  | ** (Gcase activation in the range of 10% up to 20%) | +++ (Gcase activation greater than 60%) | 
3 | Cc1ncc(-c2cc(C)n3ncc(C(=O)N[C@H](C4CC4)C(F)(F)F)c3n2)cc1F [III-380] |  |  | *** (greater than 20% Gcase activation) | +++ (Gcase activation greater than 60%) | 
4 | C#CC(NC(=O)c1cnn2c(C)cc(-c3cccc(Cl)c3)nc12)C(F)(F)F (centres unmarked) [III-99] | *** (greater than 20% Gcase activation) | ++ (Gcase activation in the range of 30% up to 60%) |  |  | 
5 | Cc1cc(N2CCN(c3ccccc3)C2=O)nc2c(C(=O)N[C@H](C3CC3)C(F)(F)F)cnn12 [III-330] |  |  | ** (Gcase activation in the range of 10% up to 20%) | ++ (Gcase activation in the range of 30% up to 60%) | 
6 | Cc1cc(N2CCCN(CC(F)(F)F)C2=O)nc2c(C(=O)NC(C3CC3)C(F)(F)F)cnn12 (centres unmarked) [III-260] | * (less than 10% Gcase activation) | ++ (Gcase activation in the range of 30% up to 60%) |  |  | 
7 | CO[C@H]1CC[C@@H]([C@@H](C)NC(=O)c2cnn3c(C)cc(C)nc23)CC1 [III-404] |  |  | * (less than 10% Gcase activation) | +++ (Gcase activation greater than 60%) | 
8 | C#Cc1cncc(-c2cc(C)n3ncc(C(=O)N[C@@H](C4CC4)C(F)(F)F)c3n2)c1 [III-383] |  |  | *** (greater than 20% Gcase activation) | +++ (Gcase activation greater than 60%) | 
9 | Cc1cc(-c2cccnc2C(F)(F)F)nc2c(C(=O)N[C@@H](C3CC3)C(F)(F)F)cnn12 [III-356] |  |  | *** (greater than 20% Gcase activation) | +++ (Gcase activation greater than 60%) | 
10 | Cc1cc(-c2cc(C)n3ncc(C(=O)N[C@H](C4CC4)C(F)(F)F)c3n2)on1 [III-343] |  |  | *** (greater than 20% Gcase activation) | +++ (Gcase activation greater than 60%) | 
11 | COc1ccc(F)cc1-c1cc(C)n2ncc(C(=O)N[C@H](C)C(F)(F)F)c2n1 [III-195] | *** (greater than 20% Gcase activation) | +++ (Gcase activation greater than 60%) |  |  | 
12 | COc1ccncc1-c1cc(C)n2ncc(C(=O)NC(C3CC3)C(F)(F)F)c2n1 (centres unmarked) [III-263] | * (less than 10% Gcase activation) | ++ (Gcase activation in the range of 30% up to 60%) |  |  | 
13 | COc1c(C#N)cccc1-c1cc(C)n2ncc(C(=O)N[C@@H](C)C3CC3)c2n1 [III-143] | * (less than 10% Gcase activation) | + (less than 30% Gcase activation) |  |  | 
14 | Cc1cc(-c2ccc(F)cc2)nc2c(C(=O)NC(C3CC3)C(F)(F)F)cnn12 (centres unmarked) [III-163] | *** (greater than 20% Gcase activation) | +++ (Gcase activation greater than 60%) |  |  | 
15 | Cc1cc(-c2cccnc2Cl)nc2c(C(=O)NC(C3CC3)C(F)(F)F)cnn12 (centres unmarked) [III-123] | ** (Gcase activation in the range of 10% up to 20%) | +++ (Gcase activation greater than 60%) |  |  | 
16 | Cc1ncc(-c2cc(C)n3ncc(C(=O)NC(C4CC4)C(F)(F)F)c3n2)o1 (centres unmarked) [III-246] | ** (Gcase activation in the range of 10% up to 20%) | +++ (Gcase activation greater than 60%) |  |  | 
17 | Cc1cc(-c2cc(F)cc(C#N)c2)nc2c(C(=O)N[C@@H](C)C3CC3)cnn12 [III-128] | *** (greater than 20% Gcase activation) | +++ (Gcase activation greater than 60%) |  |  | 
18 | Cc1cc(-c2cc(F)c3ocnc3c2)nc2c(C(=O)N[C@H](C)C(F)(F)F)cnn12 [III-296] |  |  | *** (greater than 20% Gcase activation) | +++ (Gcase activation greater than 60%) | 
19 | Cc1oc(C#N)cc1-c1cc(C)n2ncc(C(=O)N[C@H](C3CC3)C(F)(F)F)c2n1 [III-243] | *** (greater than 20% Gcase activation) | +++ (Gcase activation greater than 60%) |  |  | 

Row | SMILES | Percent Gcase Activation, 0.1 μM Test Compound (test compound at 0.1 μM) | Percent Gcase Activation, 1 μM Test Compound (test compound at 1.0 μM) | Percent Gcase Activation, 0.1 μM Test Compound (0.1 μM test compound) | Percent Gcase Activation, 1 μM Test Compound (1 μM test compound) | further results
20 | Cc1cnc(F)c(-c2cc(C)n3ncc(C(=O)N[C@H](C4CC4)C(F)(F)F)c3n2)c1 [III-374] |  |  | *** (greater than 20% Gcase activation) | +++ (Gcase activation greater than 60%) | 
21 | Cc1cc(-c2ccoc2F)nc2c(C(=O)N[C@H](C)C(F)(F)F)cnn12 [III-335] |  |  | *** (greater than 20% Gcase activation) | +++ (Gcase activation greater than 60%) | 
22 | Cc1cc(-c2ccncc2)nc2c(C(=O)NC(C)(C)C3CC3)cnn12 [III-20] |  |  |  |  | Percent Gcase Activation, 0.1 μM Test Compound (0.1 μM test compound, Table 3A): * (less than 10% Gcase activation); Percent Gcase Activation, 1 μM Test Compound (1 μM test compound, Table 3A): +++ (Gcase activation greater than 60%)
23 | Cc1cc(N2CCC(C)(C)C2=O)nc2c(C(=O)NC(C3CC3)C(F)(F)F)cnn12 (centres unmarked) [III-328] |  |  | ** (Gcase activation in the range of 10% up to 20%) | +++ (Gcase activation greater than 60%) | 
24 | Cc1cc(-c2ccc(F)cc2)nc2c(C(=O)N[C@H](C)C(F)(F)F)cnn12 [III-359] |  |  | ** (Gcase activation in the range of 10% up to 20%) | +++ (Gcase activation greater than 60%) | 
25 | Cc1cc(-c2cncc(C#N)c2)nc2c(C(=O)N[C@H](C3CC3)C(F)(F)F)cnn12 [III-363] |  |  | *** (greater than 20% Gcase activation) | +++ (Gcase activation greater than 60%) | 
26 | Cc1cc(C)n2ncc(C(=O)N[C@@H](C)C3CCCCC3)c2n1 [III-4] |  |  |  |  | Percent Gcase Activation, 0.1 μM Test Compound (0.1 μM test compound, Table 3A): *** (greater than 20% Gcase activation); Percent Gcase Activation, 1 μM Test Compound (1 μM test compound, Table 3A): +++ (Gcase activation greater than 60%)
27 | Cc1cc(-c2cccc(F)c2)nc2c(C(=O)NC(C3CC3)C(F)(F)F)cnn12 (centres unmarked) [III-111] | *** (greater than 20% Gcase activation) | +++ (Gcase activation greater than 60%) |  |  | 
28 | COCc1cc(-c2cccc(F)c2)nc2c(C(=O)NC(C)(C)C3CC3)cnn12 [III-74] |  |  |  |  | Percent Gcase Activation, 0.1 μM Test Compound (0.1 μM test compound, Table 3A): ** (Gcase activation in the range of 10% up to 20%); Percent Gcase Activation, 1 μM Test Compound (1 μM test compound, Table 3A): +++ (Gcase activation greater than 60%)
29 | Cc1cc(-c2cc(F)c3c(c2)OCO3)nc2c(C(=O)NC(C)C(F)(F)F)cnn12 (centres unmarked) [III-294] |  |  | *** (greater than 20% Gcase activation) | +++ (Gcase activation greater than 60%) | 
30 | Cc1cc(-c2ccc(F)cc2)nc2c(C(=O)N[C@@H](C)C(F)(F)F)cnn12 [III-360] |  |  | *** (greater than 20% Gcase activation) | +++ (Gcase activation greater than 60%) | 
31 | Cc1cc(-c2cccc(C#N)c2)nc2c(C(=O)N[C@H](C)C3CC3)cnn12 [III-93] | ** (Gcase activation in the range of 10% up to 20%) | +++ (Gcase activation greater than 60%) |  |  | 
32 | Cc1cc(Cl)nc2c(C(=O)NC(C)(C)C3CC3)cnn12 [III-15] |  |  |  |  | Percent Gcase Activation, 0.1 μM Test Compound (0.1 μM test compound, Table 3A): *** (greater than 20% Gcase activation); Percent Gcase Activation, 1 μM Test Compound (1 μM test compound, Table 3A): +++ (Gcase activation greater than 60%)
33 | Cc1cc(C)n2ncc(C(=O)NC(C)(C)C3CC3)c2n1 [III-2] |  |  |  |  | Percent Gcase Activation, 0.1 μM Test Compound (0.1 μM test compound, Table 3A): ** (Gcase activation in the range of 10% up to 20%); Percent Gcase Activation, 1 μM Test Compound (1 μM test compound, Table 3A): +++ (Gcase activation greater than 60%)
34 | Cc1cc(C)n2ncc(C(=O)N[C@@H](C)C3CC3)c2n1 [III-1] |  |  |  |  | Percent Gcase Activation, 0.1 μM Test Compound (0.1 μM test compound, Table 3A): * (less than 10% Gcase activation); Percent Gcase Activation, 1 μM Test Compound (1 μM test compound, Table 3A): ++ (Gcase activation in the range of 30% up to 60%)
35 | Cc1nc(-c2cc(C)n3ncc(C(=O)N[C@H](C)C(F)(F)F)c3n2)oc1C [III-345] |  |  | ** (Gcase activation in the range of 10% up to 20%) | +++ (Gcase activation greater than 60%) | 
36 | Cc1cc(-c2ccc(C#N)nc2)nc2c(C(=O)N[C@H](C3CC3)C(F)(F)F)cnn12 [III-367] |  |  | ** (Gcase activation in the range of 10% up to 20%) | +++ (Gcase activation greater than 60%) | 
37 | Cc1cc(-c2cc(F)ccc2C#N)nc2c(C(=O)N[C@H](C)C(F)(F)F)cnn12 [III-349] |  |  | *** (greater than 20% Gcase activation) | ++ (Gcase activation in the range of 30% up to 60%) | 
